# “Also recorded” adds a separate entry of the source.
# System: NALM6-luc2
# Procedure: 6-week-old NOG mice produced by In-Vivo Science Co., Ltd., were obtained, and tumor cells were intravenously transplanted into the mice at 7 weeks of age to prepare tumor-bearing mice. The day before the transplantation, busulfex (BSF) was intraperitoneally administered at 20 mg/kg. During the breeding period, the mice were housed with 5 mice per group and bred in a P2A breeding room set to a temperature of 24° C. (actual measurement: 19.7 to 25.0° C.), humidity of 50% (actual measurement: 38.6 to 58.5%), and illumination of 12 hours/day (8:00 a.m. to 8:00 p.m.). During the breeding period, the mice were allowed free access to radiation-sterilized solid feed for mice (CL-2, produced by Clea Japan, Inc.) and autoclave-sterilized tap water placed in a water bottle.
# CD19 CAR-T cells were intravenously administered once according to the group constitution on the same day as grouping. The IAP antagonist also started to be administered on the same day as grouping and was orally or intravenously administered according to the group constitution table.
# The evaluation period was set to 3 to 4 weeks. Grouping and pharmacological evaluation were performed based on tumor luminescence values as determined by IVIS (trademark). Luminescence value measurement by IVIS (trademark) and body weight measurement were performed twice a week.
# For NALM6-luc2, after resuspension, a portion of the cell suspension was taken, dead cells were stained with AOPI Staining Solution, and the number of viable cells was counted with a blood cell measuring device. A cell suspension was prepared by diluting the cells with RPMI 1640 to 1×10^7 cells/mL, based on the measurement results of viable cell count of the cells. Similarly, in a low tumor volume system, a cell suspension was prepared by diluting the cells with serum-free RPMI 1640 to achieve a concentration of 1×10^6 cells/mL.
# After the mice were retained using a retainer, a cell suspension was transplanted at 1×10^6 cells/0.1 mL/body using a 27G Myjector (1 mL, produced by Terumo Corporation) to the tail vein of each mouse with no anesthesia. In the low tumor volume system, a cell suspension at 1×10^5 cells/0.1 mL/body was transplanted.
# In accordance with the dosing regimen shown in FIG. 6, NALM6-luc2 was transplanted the day after treating the […] with busulfex. On the third day after the transplantation, luminescence values were measured using the IVIS (trademark) Lumina X5 In-Vivo imaging system (produced by PerkinElmer, Co., Ltd.). Using the luminous values as an indicator and using SAS software R9.4 (produced by SAS Institute Japan), the mice were divided into groups of 5 mice each by the stratified random sampling method.
# 1) A suspension of CD19 CAR-T cells was administered to the tail vein at the time of grouping. For the dosage, the number of viable CD19 CAR-T cells was counted and a cell suspension prepared according to the group constitution table was administered once at 0.1 mL/body. For the administration, a Myjector syringe with a 27G needle was used.
# 5) Birinapant was intraperitoneally administered at a dose of 10 mL/kg according to the group composition table. Tolinapant, LCL161, and AT406 were orally administered at a dose of 10 mL/kg according to the group composition table using a sonde in the same manner. For intraperitoneal administration, an insulin syringe with a 26G needle was used in place of the sonde. For oral administration, a needle was used in place of the sonde to administer each drug.
# VivoGlo™-luciferin (produced by Promega) was dissolved in D-PBS(−) to achieve a concentration of 30 mg/mL and then cryopreserved at −20° C. under light-shielded conditions. On the day of measurement, dissolved VivoGlo™-luciferin was diluted with an equivalent amount of D-PBS(−) and stored at room temperature under light-shielded conditions until use for testing. Based on the body weight measured in advance, VivoGlo™-luciferin was intraperitoneally administered in a volume of 10 mL/kg.
# [1] = LCL161 30 mg/kg qw po + CD19 CAR-T 1×10^5 cells/body iv
smiles,measurement,setting,value
"CN[C@@H](C)C(=O)N[C@H]1CN(C(=O)CC(C)C)CC[C@H]2CC[C@@H](C(=O)NC(c3ccccc3)c3ccccc3)N2C1=O [AT406, reference compound]",effect of AT406 + 1×10^5 cells CD19 CAR-T compared with 1×10^6 cells CD19 CAR-T alone,AT406 100 mg/kg qd po + CD19 CAR-T 1×10^5 cells/body iv,an effect equivalent to the effect achieved by 1×10^6 cells of CD19 CAR-T alone was observed on day 14 and thereafter
same,combination effect of AT406 and CD19 CAR-T,"AT406 100 mg/kg qd po + CD19 CAR-T 1×10^5 cells/body iv, 100 mg/kg",a combination effect was observed on day 10 and thereafter; also recorded: showed a combination effect with CD19 CAR-T; also recorded: a combination effect profile similar to that of tolinapant
same,efficacy of AT406 administered alone,"AT406 alone, 100 mg/kg, daily oral administration",showed no efficacy
"CN[C@@H](C)C(=O)N[C@H](C(=O)N1CCC[C@H]1c1nc(C(=O)c2ccc(F)cc2)cs1)C1CCCCC1 [LCL161, reference compound]",death of mice under LCL161 alone,LCL161 30 mg/kg orally twice a week,at least half of the mice died
same,effect of LCL161 + 1×10^5 cells CD19 CAR-T compared with 1×10^6 cells CD19 CAR-T alone,[1],an effect equivalent to the effect achieved by using 1×10^6 cells of CD19 CAR-T alone was observed on day 14 and thereafter
same,highest efficacy of combined use of LCL161 compared with combined use of tolinapant,[1],lower than the efficacy achieved by the combined use of tolinapant
same,combination effect of LCL161 and CD19 CAR-T,"LCL161 30 mg/kg qw po + CD19 CAR-T 1×10^5 cells/body iv, 30 mg/kg",a significant combination effect was observed on day 7 and thereafter; also recorded: showed a combination effect with CD19 CAR-T
same,"toxicity of LCL161 (death, weight loss) in the combination test","LCL161 30 mg/kg qw po, combination test with CD19 CAR-T, 30 mg/kg",highly toxic; also recorded: at least half of the animals died due to LCL161; also recorded: showed such toxicity as to confirm weight loss and death
same,efficacy of LCL161 administered alone,"LCL161 alone, 30 mg/kg orally twice a week",no effects were exhibited
"CC[C@H](NC(=O)[C@H](C)NC)C(=O)N1C[C@@H](O)C[C@H]1Cc1c(-c2[nH]c3cc(F)ccc3c2C[C@@H]2C[C@H](O)CN2C(=O)[C@H](CC)NC(=O)[C@H](C)NC)[nH]c2cc(F)ccc12 [Birinapant, reference compound]",combination effect of birinapant and CD19 CAR-T compared to CD19 CAR-T alone,birinapant 12 mg/kg q3-4d ip + CD19 CAR-T 1×10^5 cells/body iv,did not increase antitumor effects
same,efficacy of birinapant administered alone,"birinapant alone, 12 mg/kg, intraperitoneal administration twice a week",showed no efficacy

# Source: patent publication US20250127813A1, “COMBINATION DRUG” (OTSUKA PHARMACEUTICAL CO., LTD., priority 2021, published 2025)
